# In EPA's ToxRefDB 2:
# Tests used:
# rat [1] = conditions: Combined chronic toxicity/carcinogenicity, fischer, Oral, Feed, dose end: 2 year
# mouse = conditions: Combined chronic toxicity/carcinogenicity, cd1, Oral, Feed, dose end: 24 month
# rabbit = conditions: Prenatal developmental toxicity study, Dutch, Oral, Gavage/Intubation, dose end: 18 GD
# rat [2] = conditions: Multigenerational reproductive toxicity study, sprague dawley, Oral, Feed, dose end: 2 generation
# rat [3] = conditions: Combined chronic toxicity/carcinogenicity, fischer, Oral, Feed, dose end: 106 week
# [4] = group: cholinesterase, cholinesterase / cholinesterase / cholinesterase / brain cholinesterase (che) + cholinesterase / cholinesterase / cholinesterase / …
# [5] = group: systemic, systemic / in life observation / body weight / body weight + systemic / in life observation / body weight / body weight gain + systemic / …
# [6] = group: systemic, systemic / in life observation / clinical signs / urine staining - perineum
# [7] = group: systemic, systemic / in life observation / clinical signs / vaginal discharge + systemic / in life observation / clinical signs / urine staining - …
# [8] = group: cholinesterase, cholinesterase / cholinesterase / cholinesterase / erythrocyte cholinesterase (che) + cholinesterase / cholinesterase / cholinesterase / …
# [9] = group: developmental, developmental / developmental malformation / bone / delayed ossification + systemic / in life observation / body weight / fetal weight
# [10] = group: maternal, reproductive / reproductive performance / resorptions / resorptions + reproductive / reproductive performance / aborted / aborted + systemic…
# [11] = group: cholinesterase, cholinesterase / cholinesterase / cholinesterase / brain cholinesterase (che) + cholinesterase / cholinesterase / cholinesterase / plasma …
# [12] = group: offspring, systemic / in life observation / body weight / offspring (pup) weight + systemic / pathology microscopic / kidney / dilatation
# [13] = group: parental, systemic / pathology gross / lung / discolored + systemic / pathology microscopic / lung / hyperplasia + systemic / pathology microscopic / …
# [14] = group: reproductive, reproductive / offspring survival early / birth index / birth index
# [15] = group: cholinesterase, cholinesterase / cholinesterase / cholinesterase / plasma cholinesterase (che) + cholinesterase / cholinesterase / cholinesterase / brain …
# [16] = group: systemic, systemic / hematology / hematocrit (hct) / hematocrit (hct) + systemic / hematology / mean corpuscular (cell) volume (mcv) / mean …
smiles,measurement,setting,value
COP(=O)(OC)C(O)C(Cl)(Cl)Cl (configuration not stated) [Trichlorfon],LEL,rat [1]; [4],129 mg/kg/day
same,LOAEL,rat [1]; [4],129 mg/kg/day
same,NEL,rat [1]; [4],< 129 mg/kg/day
same,NOAEL,rat [1]; [4],< 129 mg/kg/day
same,LEL,rat [1]; [5],129 mg/kg/day
same,LOAEL,rat [1]; [5],129 mg/kg/day
same,NEL,rat [1]; [5],< 129 mg/kg/day
same,NOAEL,rat [1]; [5],< 129 mg/kg/day
same,LEL,mouse; [4],45 mg/kg/day
same,LOAEL,mouse; [4],45 mg/kg/day
same,NEL,mouse; [4],< 45 mg/kg/day
same,NOAEL,mouse; [4],< 45 mg/kg/day
same,LEL,mouse; [6],45 mg/kg/day
same,NEL,mouse; [6],< 45 mg/kg/day
same,LOAEL,mouse; [7],> 405 mg/kg/day
same,NOAEL,mouse; [7],≥ 405 mg/kg/day
same,LEL,rabbit; [8],35 mg/kg/day
same,LOAEL,rabbit; [8],35 mg/kg/day
same,NEL,rabbit; [8],10 mg/kg/day
same,NOAEL,rabbit; [8],10 mg/kg/day
same,LEL,rabbit; [9],110 mg/kg/day
same,LOAEL,rabbit; [9],110 mg/kg/day
same,NEL,rabbit; [9],35 mg/kg/day
same,NOAEL,rabbit; [9],35 mg/kg/day
same,LEL,"rabbit; group: maternal, reproductive / reproductive performance / aborted / aborted + systemic / in life observation / clinical signs / altered breathing rate + …",35 mg/kg/day
same,LOAEL,"rabbit; group: maternal, reproductive / reproductive performance / resorptions / resorptions",110 mg/kg/day
same,NEL,rabbit; [10],10 mg/kg/day
same,NOAEL,rabbit; [10],35 mg/kg/day
same,LEL,rat [2]; [11],15 mg/kg/day
same,LOAEL,rat [2]; [11],15 mg/kg/day
same,NEL,rat [2]; [11],< 15 mg/kg/day
same,NOAEL,rat [2]; [11],< 15 mg/kg/day
same,LEL,rat [2]; [12],175 mg/kg/day
same,LOAEL,rat [2]; [12],175 mg/kg/day
same,NEL,rat [2]; [12],50 mg/kg/day
same,NOAEL,rat [2]; [12],50 mg/kg/day
same,LEL,rat [2]; [13],175 mg/kg/day
same,LOAEL,rat [2]; [13],> 175 mg/kg/day
same,NEL,rat [2]; [13],50 mg/kg/day
same,NOAEL,rat [2]; [13],≥ 175 mg/kg/day
same,LOAEL,rat [2]; [14],175 mg/kg/day
same,NEL,rat [2]; [14],50 mg/kg/day
same,NOAEL,rat [2]; [14],50 mg/kg/day
same,LEL,"rat [2]; group: reproductive, reproductive / offspring survival early / birth index / birth index + reproductive / offspring survival early / litter size / litter size",175 mg/kg/day
same,LEL,rat [3]; [15],15 mg/kg/day
same,LOAEL,rat [3]; [15],15 mg/kg/day
same,NEL,rat [3]; [15],5 mg/kg/day
same,NOAEL,rat [3]; [15],5 mg/kg/day
same,LEL,rat [3]; [16],15 mg/kg/day
same,LOAEL,rat [3]; [16],15 mg/kg/day
same,NEL,rat [3]; [16],5 mg/kg/day
same,NOAEL,rat [3]; [16],5 mg/kg/day
